Source: the supplement of paper PMC10307832

Legend:
Assay in all cases: relative viability (nuclei count vs DMSO), 5 days (fraction); higher = more cells survive
NCI-H2087 = tested on: NCI-H2087
Procedure, shortened: (§1)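 Relative viability divides the nuclei count in treated wells by that in vehicle wells. Lung cancer cell lines were seeded in 1536-well plates, dosed by pin tool the next day, and fixed and stained after 5 days in one step with final 0.05% Triton X-100, 1% formaldehyde and 1 ug/ml Hoechst. Dosing was a single drug or a fixed anchor-drug dose plus five library-drug doses (not always all listed) in √10 steps, and values are medians of duplicate plates imaged at 4×.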

HCC-78 = tested on: HCC-78
Procedure, shortened: as §1

HOP-62 = tested on: HOP-62
Procedure, shortened: as §1

ChaGo-K-1 = tested on: ChaGo-K-1
Procedure, shortened: as §1

NCI-H661 = tested on: NCI-H661
Procedure, shortened: as §1

HCC-44 = tested on: HCC-44
Procedure, shortened: as §1

SK-MES-1 = tested on: SK-MES-1
Procedure, shortened: as §1

NCI-H1650 = tested on: NCI-H1650
Procedure, shortened: as §1

NCI-H838 = tested on: NCI-H838
Procedure, shortened: as §1

LOU-NH91 = tested on: LOU-NH91
Procedure, shortened: as §1

NCI-H596 = tested on: NCI-H596
Procedure, shortened: as §1

HCC-366 = tested on: HCC-366
Procedure, shortened: as §1

SMILES: O=c1[nH]c2ccccc2n1C1CCN(CCCC(c2ccc(F)cc2)c2ccc(F)cc2)CC1 [Pimozide] + CC(=O)Nc1cccc(-n2c(=O)n(C3CC3)c(=O)c3c(Nc4ccc(I)cc4F)n(C)c(=O)c(C)c32)c1 [Trametinib] (partner 0.02 µM)
- relative viability (NCI-H2087; first compound 2.53 µM): 0.179
- relative viability (NCI-H2087; first compound 8 µM): 0.205
- relative viability (HCC-78; first compound 0.08 µM): 0.704
- relative viability (HCC-78; first compound 0.8 µM): 0.688
- relative viability (HCC-78; first compound 2.53 µM): 0.776
- relative viability (HCC-78; first compound 8 µM): 0.757
- relative viability (HOP-62; first compound 0.08 µM): 0.362
- relative viability (HOP-62; first compound 0.253 µM): 0.347
- relative viability (HOP-62; first compound 2.53 µM): 0.328
- relative viability (HOP-62; first compound 8 µM): 0.389
- relative viability (ChaGo-K-1; first compound 0.08 µM): 0.873
- relative viability (ChaGo-K-1; first compound 0.253 µM): 0.871
- relative viability (ChaGo-K-1; first compound 0.8 µM): 0.851
- relative viability (ChaGo-K-1; first compound 2.53 µM): 0.872
- relative viability (ChaGo-K-1; first compound 8 µM): 0.874
- relative viability (NCI-H661; first compound 0.08 µM): 0.598
- relative viability (NCI-H661; first compound 0.253 µM): 0.583
- relative viability (NCI-H661; first compound 0.8 µM): 0.498
- relative viability (NCI-H661; first compound 2.53 µM): 0.492
- relative viability (NCI-H661; first compound 8 µM): 0.409
- relative viability (HCC-44; first compound 0.08 µM): 1.1
- relative viability (HCC-44; first compound 0.253 µM): 1.18
- relative viability (HCC-44; first compound 0.8 µM): 0.913
- relative viability (HCC-44; first compound 2.53 µM): 0.979
- relative viability (HCC-44; first compound 8 µM): 0.887
- relative viability (SK-MES-1; first compound 0.08 µM): 0.533
- relative viability (SK-MES-1; first compound 0.253 µM): 0.517
- relative viability (SK-MES-1; first compound 0.8 µM): 0.508
- relative viability (SK-MES-1; first compound 2.53 µM): 0.744
- relative viability (SK-MES-1; first compound 8 µM): 0.441
- relative viability (NCI-H1650; first compound 0.08 µM): 0.625
- relative viability (NCI-H1650; first compound 0.253 µM): 0.591
- relative viability (NCI-H1650; first compound 0.8 µM): 0.516
- relative viability (NCI-H1650; first compound 2.53 µM): 0.571
- relative viability (NCI-H1650; first compound 8 µM): 0.718
- relative viability (NCI-H838; first compound 0.08 µM): 0.536
- relative viability (NCI-H838; first compound 0.253 µM): 0.561
- relative viability (NCI-H838; first compound 0.8 µM): 0.482
- relative viability (NCI-H838; first compound 2.53 µM): 0.528
- relative viability (NCI-H838; first compound 8 µM): 0.571
- relative viability (LOU-NH91; first compound 0.08 µM): 0.649
- relative viability (LOU-NH91; first compound 0.253 µM): 0.822
- relative viability (LOU-NH91; first compound 0.8 µM): 0.755
- relative viability (LOU-NH91; first compound 2.53 µM): 0.841
- relative viability (LOU-NH91; first compound 8 µM): 0.819
- relative viability (NCI-H596; first compound 0.08 µM): 0.83
- relative viability (NCI-H596; first compound 0.253 µM): 0.763
- relative viability (NCI-H596; first compound 0.8 µM): 0.738
- relative viability (NCI-H596; first compound 2.53 µM): 0.736
- relative viability (NCI-H596; first compound 8 µM): 0.772
- relative viability (HCC-366; first compound 0.08 µM): 0.32
- relative viability (HCC-366; first compound 0.253 µM): 0.282
- relative viability (HCC-366; first compound 0.8 µM): 0.361
- relative viability (HCC-366; first compound 2.53 µM): 0.298
- relative viability (HCC-366; first compound 8 µM): 0.34
